Assays:
rats = experiment: Antipyretic activity, E. coli suspension as pyrogen; assay type: in vivo; details: in °C (unit assumed)
Experimental: Rats are administered with sterilized E. coli suspension as a pyrogen. Each group of rats are administered with a prodrug compounds or parent compounds at a dosage specified below. The prodrug compounds are administered either orally or transdermally. The parent compounds are administered orally.

[1] = Plasma levels after transdermal administration to hairless mice; assay type: in vivo; details: mouse, in vivo
Experimental: Tested compounds (20% solution or suspension in 1 mL isopropanol) are administered transdermally to the skin of intact hairless mice. The plasma levels of the parent compounds are determined by HPLC.

mice = experiment: Analgesic activity, acetic acid writhing; assay type: in vivo
Experimental: The prodrug compounds are administered either transdermally or orally. The parent compounds are administered orally. The number of writhing that occurred when mice are administered the acetic acid solution are counted, and the rate of inhibition based on the control group which was not pretreated with any test compounds is calculated. […] The A group is the control group.

rat = details: rats
Experimental: The acute toxicity of the prodrug compounds and parent compounds are measured by LD50 of rat.

[2] = test system: Human breast cancer cells (BCAP-37); experiment: Human breast cancer xenograft in nude mice, topical; details: day 42, 30 μl of 5% (1.5 mg) topically every 8 hours from day 14; for Tumor size: control 800 ± 100
Experimental: Human breast cancer cells (BCAP-37, 2-3 mm^3 of tumor tissue was used in each mouse) are subcutaneously xenografted into the front leg of nude mice (BALB, 12 groups, 7 mice each group). […] Then 30 μl of 5% (equal to 1.5 mg of the HPPs) diethylaminoethyl acetylsalicylate.acetylsalicylic acid salt (P-1, in acetone); 1-piperidinepropyl 2[(2,6-dichlorophenyl)amino]benzene acetate.AcOH (P-2, in water), 1-pyrrolidinepropyl 2-(3-benzoylphenyl) propionate.AcOH (P-3, in water), 4-piperidinemethyl 2-(3-phenoxyphenyl)propionate.AcOH (P-4, in water), 3-piperidinemethyl 2-(ρ-isobutylphenyl) propionate.AcOH (P-5, in water), diethylaminoethyl 1-(p-chlorobenzoyl)-5-methoxy-2-methylindole 3-acetate.AcOH (P-11, in water), 2-(4-morpholinyl)ethyl (Z)-5-fluoro-2-methyl-1-[(4-methylsulfinyl) phenylmethylene]-1H-indene-3-acetate.AcOH (P-12, in water), diethylaminoethyl

human skin tissue = details: pH 7.4
[3] = test system: Human colon cancer cells (LS174J); experiment: Human colon cancer xenograft in nude mice, topical; details: day 30, about 30 μl of 5% solution (1.5 mg) topically applied
Description: Human colon cancer cells (LS174J, 2-3 mm^3 of tumor tissue was used in each mouse) are subcutaneously xenografted into the front leg of nude mice (BALB).

Chinese white rabbits = experiment: Malassezia-induced lesions similar to psoriasis; assay type: in vivo, rabbit; details: 5% aqueous solution twice per day, 10 days after application
Description: Heavy suspensions of Malassezia [Rosenberg, E. W., et al., Mycopathologia, 72, 147-154 (1980)] were applied to the shaved skin on the backs of the Chinese white rabbits (n=4×6) twice (at 7 am and 7 pm) per day for 2 weeks, lesions similar to psoriasis resulted.

[4] = 50 mg/kg transdermally, 60 minutes before acetic acid
[5] = 100 mg/kg transdermally, 30 min before acetic acid
[6] = 100 mg/kg transdermally, 60 minutes before acetic acid
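For LD50 of HPP in this document: acute toxicity in rats expressed as LD50, determined for both prodrugs and their parent compounds.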

| Compound | Peak plasma concentration of parent compound after prodrug compound [1] [mg/L] | LD50 of HPP (rat) [mg/kg] | Tumor size [2] [mm^3] | In vitro penetration rate (apparent flux), prodrug compounds (human skin tissue) [μg/cm^2/h] | Tumor size [3] [mm^3] | body temperature, t = 0 min (rats; 100 mg/kg transdermally) | body temperature, t = 90 min (rats; 100 mg/kg transdermally) | body temperature, t = 180 min (rats; 100 mg/kg transdermally) | body temperature, t = 270 min (rats; 100 mg/kg transdermally) | t, time to peak plasma level of parent compound after prodrug compound [1] [min] | % (rate of writhing inhibition) (mice; [5]) [%] | No. of Writhing (mice; [5]) | also measured |
| --- | --- | --- | --- | --- | --- | --- | --- | --- | --- | --- | --- | --- | --- |
| CN(C)CCCC(=O)OC1=C(C(=O)Nc2ccccn2)N(C)S(=O)(=O)c2ccccc21.Cl [4-N,N-dimethylaminobutyryloxy-2-methyl-N-2-pyridinyl-2H,1,2-benzothiazine-3-carboxamide 1,1-dioxide.HCl] | 20 | 550 | 390 ± 50 | 1700 |  |  |  |  |  |  |  |  | body temperature, t = 0 min (rats; 25 mg/kg transdermally): 37.57 ± 0.06; body temperature, t = 90 min (rats; 25 mg/kg transdermally): 36.51 ± 0.05; body temperature, t = 180 min (rats; 25 mg/kg transdermally): 36.40 ± 0.06; body temperature, t = 270 min (rats; 25 mg/kg transdermally): 36.45 ± 0.07; % (rate of writhing inhibition) (mice; [4]): 55%; No. of Writhing (mice; [4]): 15.6 |
| CC(=O)O.O=C(Cc1ccccc1Nc1c(Cl)cccc1Cl)OCCCN1CCCCC1 [P-2, 1-piperidinepropyl 2[(2,6-dichlorophenyl)amino]benzene acetate.AcOH] |  |  | 180 ± 50 |  | 480 ± 180 |  |  |  |  |  |  |  | Mouse weight ([2]; control 22 ± 2): 22 ± 2 g; Mouse weight [3]: 22 ± 2 g |
| CC(=O)O.CC(C(=O)OCCCN1CCCC1)c1cccc(C(=O)c2ccccc2)c1 (centres unmarked) [P-3, 1-pyrrolidinepropyl 2-(3-benzoylphenyl) propionate.AcOH] |  |  | 200 ± 50 |  | 500 ± 150 |  |  |  |  |  |  |  |  |
| CC(=O)O.CC(C(=O)OCC1CCNCC1)c1cccc(Oc2ccccc2)c1 (centres unmarked) [P-4, 4-piperidinemethyl 2-(3-phenoxyphenyl)propionate.AcOH] |  |  | 180 ± 50 |  | 480 ± 120 |  |  |  |  |  |  |  |  |
| CC(=O)O.Nc1c(CC(=O)OCCN2CCOCC2)cccc1C(=O)c1ccccc1 [P-16, 2-(4-morpholinyl)ethyl 2-amino-3-benzoylbenzeneacetate.AcOH] |  |  |  |  | 550 ± 150 |  |  |  |  |  |  |  |  |
| CC(=O)O.CCc1cccc2c3c([nH]c12)C(CC)(CC(=O)OCCN(CC)CC)OCC3 (centres unmarked) [diethylaminoethyl 1,8-diethyl-1,3,4,9-tetrahydropyrano-[3,4-b]indole-1-acetate.AcOH] | 20 | 600 |  | 1300 |  | 37.23 ± 0.06 | 36.65 ± 0.06 | 36.58 ± 0.08 | 36.60 ± 0.07 | 50 | 60 | 14.0 | lesions similar to psoriasis (Chinese white rabbits): the lesions were resolved |
| CC(=O)O.CCN(CC)CCOC(=O)Cc1ccccc1Oc1ccc(Cl)cc1Cl [diethylaminoethyl 2-(2,4-dichlorophenoxy)benzeneacetate.AcOH] | 20 | 200 | 280 ± 50 | 1500 |  | 37.22 ± 0.06 | 36.65 ± 0.06 | 36.58 ± 0.08 | 36.56 ± 0.07 | 50 | 59 | 14.2 |  |
| CC(=O)O.CCN(CC)CCOC(=O)C(C)c1ccc2c(c1)C(=O)Cc1cc(C)ccc1O2 (centres unmarked) [diethylaminoethyl 2-(8-methyl-10, 11-dihydro-11-oxodibenz(b,f)oxepin-2-yl)propionate.AcOH] | 2000 |  | 250 ± 50 | 4100 |  | 37.26 ± 0.07 | 36.80 ± 0.06 | 36.70 ± 0.05 | 36.57 ± 0.08 | 50 | 61 | 13.8 |  |
| CC(=O)O.CCN(CC)CCOC(=O)C(C)c1ccc2c(c1)CC(=O)c1ccccc1S2 (centres unmarked) [diethylaminoethyl 2-(10, 11-dihydro-10-oxodibenzo(b,f)thiepin-2-yl)propionate.AcOH] | 2000 |  |  | 3700 | 480 ± 180 | 37.25 ± 0.06 | 36.71 ± 0.05 | 36.65 ± 0.08 | 36.64 ± 0.07 | 50 | 59 | 14.2 |  |
| CC(=O)O.CCN(CC)CCOC(=O)c1ccccc1Nc1cccc(C)c1C [diethylaminoethyl 2-[(2,3-dimethylphenyl)amino]benzoate.AcOH] | 20 | 900 |  | 2100 | 650 ± 250 | 37.35 ± 0.06 | 36.71 ± 0.05 | 36.60 ± 0.08 | 36.59 ± 0.07 | 50 |  |  | % (rate of writhing inhibition) (mice; [6]): 55%; No. of Writhing (mice; [6]): 15.6 |
| CC(=O)O.CCN(CC)CCOC(=O)c1ccccc1Nc1c(Cl)ccc(C)c1Cl [diethylaminoethyl 2-[(2,6-dichloro-3-methylphenyl)amino]benzoate.AcOH] | 20 | 1000 |  | 2000 | 490 ± 150 | 37.28 ± 0.06 | 36.68 ± 0.05 | 36.62 ± 0.08 | 36.58 ± 0.07 | 50 |  |  | % (rate of writhing inhibition) (mice; [6]): 59%; No. of Writhing (mice; [6]): 14.2 |
| CC(=O)O.CCN(CC)CCOC(=O)Cc1cn(-c2ccccc2)nc1-c1ccc(Cl)cc1 [diethylaminoethyl 3-(4-chlorophenyl)-1-phenyl-1H-pyrazole-4-acetate.AcOH] | 20 | 1200 |  |  |  | 37.22 ± 0.07 | 36.82 ± 0.06 | 36.80 ± 0.05 | 36.77 ± 0.08 | 50 | 57 | 15.2 | lesions similar to psoriasis (Chinese white rabbits): the lesions were resolved |
| N-(2-thiazolyl)-4-N,N-dimethylaminobutyryloxy-2-methyl-2H,1,2-benzothiazine-3-carboxamide 1,1-dioxide.HCl | 20 | 670 |  | 1500 | 690 ± 250 |  |  |  |  | 50 |  |  | body temperature, t = 0 min (rats; 25 mg/kg transdermally): 37.50 ± 0.07; body temperature, t = 90 min (rats; 25 mg/kg transdermally): 36.61 ± 0.04; body temperature, t = 180 min (rats; 25 mg/kg transdermally): 36.50 ± 0.07; body temperature, t = 270 min (rats; 25 mg/kg transdermally): 36.60 ± 0.05; % (rate of writhing inhibition) (mice; [4]): 55%; No. of Writhing (mice; [4]): 15.7 |

Reference: patent US20210353579A1, “HIGH PENETRATION COMPOSITIONS AND USES THEREOF” (Techfields Pharma Co., Ltd., priority 2006, published 2021)
